Experimental data taken from patent publication US8841087B2 (priority 2008, dated 2014).

System: clinical strains of Mycobacterium tuberculosis
Test: Reference phenotypic test of antibiotic sensitivity in solid medium
Assay type: cell-based
Conditions: six clinical strains

NNC(=O)c1ccncc1 [isoniazid]
sensitivity at critical concentration (isoniazid, 0.2 μg/ml): sensitive

CC[C@@H](CO)NCCN[C@@H](CC)CO [ethambutol]
sensitivity at critical concentration (ethambutol, 5 μg/ml): sensitive

[H]/N=C(/N)N[C@H]1[C@H](O)[C@@H](O)[C@H](O[C@@H]2O[C@@H](C)[C@](O)(C=O)[C@H]2O[C@@H]2O[C@@H](CO)[C@H](O)[C@@H](O)[C@@H]2NC)[C@@H](N/C(N)=N\[H])[C@@H]1O [streptomycin]
sensitivity at critical concentration (streptomycin, 5 μg/ml): sensitive
